test system: EMT6 mouse mammary tumor cells; test: Cytotoxicity against EMT6 cells in culture (MTT); details: read-out: Disulfide Cytotoxicity (IC50), Table 5, 48 h exposure

SMILES | IC50
Cc1nnc(SSC(C)C(C)O)s1 (stereo not drawn) [Compound M-3] | ≥ 180 µM
O=[N+]([O-])c1ccc2[nH]c(SSCCCCl)nc2c1 [Compound H-10] | 59 µM
CC(C)SSCC(C)C(=O)N1CCCC1C(=O)O (stereo not drawn) [Compound E-28] | > 180 µM
CC(C)SSC(C)c1ccccc1 (stereo not drawn) [Compound E-22] | > 180 µM
O=C(O)CCSSc1ncccc1C(=O)O [Compound N-23] | 92 µM
CC(CSSC(C)C(C)O)C(=O)N1CCCC1C(=O)O (stereo not drawn) [Compound M-28] | ≥ 180 µM
CC(C)SSc1ccccc1 [Compound E-13] | > 180 µM
ClCCCSSc1ncnc2[nH]cnc12 [Compound H-7] | 36 µM
ClCCCSSc1ncc[nH]1 [Compound H-1] | > 180 µM
CC(O)C(C)SSc1ncccc1C(=O)O (stereo not drawn) [Compound M-23] | 96 µM
CC(O)C(C)SSc1ncc[nH]1 (stereo not drawn) [Compound M-1] | 34 µM
CC(O)C(C)SSc1nc2ccccc2o1 (stereo not drawn) [Compound M-12] | 29 µM
CCC(C)SSc1nc(N)nc2[nH]cnc12 (stereo not drawn) [Compound F-6] | 23 µM
CC(SSC(C)C(C)O)c1ccccc1 (stereo not drawn) [Compound M-22] | ≥ 180 µM
CC(O)C(C)SSc1nc2cc([N+](=O)[O-])ccc2[nH]1 (stereo not drawn) [Compound M-10] | 34 µM
CC(C)SSc1nc2ccccc2o1 [Compound E-12] | > 180 µM
CCC(C)SSCC(C)C(=O)N1CCCC1C(=O)O (stereo not drawn) [Compound F-28] | > 180 µM
ClCCCSSc1ccccc1 [Compound H-13] | > 180 µM
CC(O)C(C)SSCc1ccccc1 (stereo not drawn) [Compound M-19] | 91 µM
CC(O)C(C)SSc1nc(N)nc2[nH]cnc12 (stereo not drawn) [Compound M-6] | 32 µM
CCC(C)SSC1=NCCS1 (stereo not drawn) [Compound F-25] | 31 µM

SMILES | IC50
ClCCCSSc1nc2ccccc2[nH]1 [Compound H-8] | 82 µM
Cc1ccc2[nH]c(SSCCCCl)nc2c1 [Compound H-9] | 66 µM
Cc1ccc2[nH]c(SSC(C)C)nc2c1 [Compound E-9] | > 180 µM
O=C(O)c1cccnc1SSCCCCl [Compound H-23] | 69 µM
Cc1ccnc(SSC(C)C(C)O)n1 (stereo not drawn) [Compound M-24] | ≥ 180 µM
CC1CCC(C(C)(C)SSCCC(=O)O)C(=O)C1 (stereo not drawn) [Compound N-26] | ≥ 180 µM
Cn1ccnc1SSCCCCl [Compound H-2] | > 180 µM
Cc1nnc(SSCCCCl)s1 [Compound H-3] | > 180 µM
CCC(C)SSc1ccccc1 (stereo not drawn) [Compound F-13] | > 180 µM
CC(O)C(C)SSc1ncnc2[nH]cnc12 (stereo not drawn) [Compound M-7] | ≥ 180 µM
COc1cccc(CSSCCCCl)c1 [Compound H-20] | 91 µM
CC(O)C(C)SSc1nccn1C (stereo not drawn) [Compound M-2] | ≥ 180 µM
CC(C)SSc1nc2ccccc2[nH]1 [Compound E-8] | 66 µM
O=C(O)CCSSc1nc2ccccc2[nH]1 [Compound N-8] | ≥ 180 µM
CC(C)SSc1nc(N)nc2[nH]cnc12 [Compound E-6] | 42 µM
ClCCCSSCc1ccccc1 [Compound H-19] | 108 µM
COc1cccc(CSSC(C)C)c1 [Compound E-20] | > 180 µM
CC(O)C(C)SSc1nc2ccccc2[nH]1 (stereo not drawn) [Compound M-8] | ≥ 180 µM
CC(C)SSc1ncnc2[nH]cnc12 [Compound E-7] | > 180 µM
CC(C)SSc1nc2cc([N+](=O)[O-])ccc2[nH]1 [Compound E-10] | 29 µM

target: T1, TR/Trx (Homo sapiens, UniProt Q16881); test: Thioredoxin dependent reduction of insulin by human thioredoxin reductase and NADPH (IC50 TR/Trx, 96 well); format: biochemical; details: Table 3; read-out: IC50 TR/Trx (converted)
T1 sequence (Q16881 1-499 isoform Q16881-5): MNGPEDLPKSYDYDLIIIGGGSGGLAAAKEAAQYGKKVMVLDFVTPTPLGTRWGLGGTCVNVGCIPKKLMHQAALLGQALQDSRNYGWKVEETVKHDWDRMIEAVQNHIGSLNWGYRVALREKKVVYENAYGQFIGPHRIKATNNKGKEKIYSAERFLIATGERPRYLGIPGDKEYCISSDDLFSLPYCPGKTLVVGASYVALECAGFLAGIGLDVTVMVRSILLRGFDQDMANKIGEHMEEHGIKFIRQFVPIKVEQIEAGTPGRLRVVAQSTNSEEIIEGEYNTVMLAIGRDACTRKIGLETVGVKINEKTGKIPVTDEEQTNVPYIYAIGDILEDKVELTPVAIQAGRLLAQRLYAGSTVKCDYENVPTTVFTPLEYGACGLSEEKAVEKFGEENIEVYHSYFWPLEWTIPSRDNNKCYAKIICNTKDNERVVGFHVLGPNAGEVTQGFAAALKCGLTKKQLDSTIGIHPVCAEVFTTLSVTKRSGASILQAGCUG
Excerpt: When referring to the particular system being analyzed IC50 is typically followed by an abbreviation referring to that system (i.e., IC50 TR/Trx for the above described thioredoxin redox system which is comprised of thioredoxin reductase and thioredoxin).
A second plate was used for the assessment of biological activity or as a biological screen. Aliquots of disulfides dissolved in DMSO, were be transferred into 96 well plates. The assay to assess their ability to inhibit thioredoxin reductase measures the thioredoxin dependent reduction of insulin by human thioredoxin reductase and NADPH. The effects of the disulfides on the reduction of Trx by TR were measured spectrophotometrically by following the reduction of NADPH at 339 nm with insulin as the final electron acceptor in a buffered mixture of TR, Trx, NADPH and insulin.

SMILES | IC50
CC(C)CSSc1ncccc1C(=O)O [Compound G-23] | 57.5 µM

same assay, conditions: Table 4

SMILES | Disulfide inhibition of TR/Trx (IC50 TR/Trx)
CCCCSSc1nnc(C)s1 [Compound C-3] | 9 µg/mL
CCCCSSc1nc2ccccc2[nH]1 [Compound C-8] | 57 µg/mL
CCSSc1nnc(C)s1 [Compound A-3] | 75 µg/mL
Cc1ccc2[nH]c(SSCC(C)C)nc2c1 [Compound G-9] | 11 µg/mL
CC(C)CSSc1nc2ccccc2[nH]1 [Compound G-8] | 18 µg/mL
Cc1ccnc(SSCc2ccccc2)n1 [Compound I-24] | 35 µg/mL
COc1ccc(CSSCC(C)C)cc1 [Compound G-21] | >203 µg/mL
COc1cccc(CSSC(C)c2ccccc2)c1 (stereo not drawn) [Compound J-20] | 74 µg/mL
CCCCSSCc1ccc(OC)cc1 [Compound C-21] | 179 µg/mL
Sc1nnc(SSCc2ccccc2)s1 [Compound I-4] | 5 µg/mL
CC(SSc1ncccc1C(=O)O)c1ccccc1 (stereo not drawn) [Compound J-23] | 89 µg/mL
CC(SSc1nc2ccccc2[nH]1)c1ccccc1 (stereo not drawn) [Compound J-8] | 8 µg/mL
CCCCSSCc1cccc(OC)c1 [Compound C-20] | 61 µg/mL
Cn1ccnc1SSCc1ccccc1 [Compound I-2] | 100 µg/mL
O=C(O)c1cccnc1SSCc1ccccc1 [Compound I-23] | 35 µg/mL
Cc1ccc2[nH]c(SSC(C)c3ccccc3)nc2c1 (stereo not drawn) [Compound J-9] | 43 µg/mL
CC(C)CSSc1nccn1C [Compound G-2] | 125 µg/mL
CC(SSc1nc2cc([N+](=O)[O-])ccc2[nH]1)c1ccccc1 (stereo not drawn) [Compound J-10] | 43 µg/mL
Cc1nnc(SSC(C)c2ccccc2)s1 (stereo not drawn) [Compound J-3] | 11 µg/mL
CCSSc1nnc(S)s1 [Compound A-4] | 35 µg/mL
CCSSc1ncccc1C(=O)O [Compound A-23] | 35 µg/mL
CCCSSc1nnc(C)s1 [Compound B-3] | 85 µg/mL
CCCCSSc1nc2ccccc2o1 [Compound C-12] | 42 µg/mL
CCCCSSc1ncccc1C(=O)O [Compound C-23] | 65 µg/mL
CC(SSc1nccn1C)c1ccccc1 (stereo not drawn) [Compound J-2] | 12 µg/mL
CC(C)SSc1nnc(S)s1 [Compound E-4] | 35 µg/mL

SMILES | Disulfide inhibition of TR/Trx (IC50 TR/Trx)
COc1ccc(CSSC(C)c2ccccc2)cc1 (stereo not drawn) [Compound J-21] | 74 µg/mL
CC(C)CSSc1nc2ccccc2o1 [Compound G-12] | 52 µg/mL
CC(SSc1nc(N)nc2[nH]cnc12)c1ccccc1 (stereo not drawn) [Compound J-6] | 38 µg/mL
Cc1ccnc(SSCC(C)C)n1 [Compound G-24] | 65 µg/mL
CC(C)CSSCc1ccccc1 [Compound G-19] | >189 µg/mL
CC(C)CSSC(C)c1ccccc1 (stereo not drawn) [Compound G-22] | 201 µg/mL
CCCCSSc1nccc(C)n1 [Compound C-24] | 48 µg/mL
CCSSc1nccc(C)n1 [Compound A-24] | 90 µg/mL
CCCCSSc1nc(N)nc2[nH]cnc12 [Compound C-6] | 33 µg/mL
CCCCSSc1nc2cc(C)ccc2[nH]1 [Compound C-9] | 12 µg/mL
CCCSSc1nccn1C [Compound B-2] | 75 µg/mL
CCCCSSc1ncnc2[nH]cnc12 [Compound C-7] | 33 µg/mL
CCCCSSc1nc2cc([N+](=O)[O-])ccc2[nH]1 [Compound C-10] | >76 µg/mL
CCCSSc1nnc(S)s1 [Compound B-4] | 35 µg/mL
CC(SSCc1ccccc1)c1ccccc1 (stereo not drawn) [Compound J-19] | >232 µg/mL
CC(SSc1nnc(S)s1)c1ccccc1 (stereo not drawn) [Compound J-4] | 42 µg/mL
Cc1nnc(SSCc2ccccc2)s1 [Compound I-3] | 9 µg/mL
Cc1ccnc(SSC(C)c2ccccc2)n1 (stereo not drawn) [Compound J-24] | 67 µg/mL
CCCCSSC(C)c1ccccc1 (stereo not drawn) [Compound C-22] | 194 µg/mL
CC(SSc1nc2ccccc2o1)c1ccccc1 (stereo not drawn) [Compound J-12] | 16 µg/mL
CCCCSSC1CCCC1 [Compound C-27] | 51 µg/mL
CCCCSSc1nnc(S)s1 [Compound C-4] | 56 µg/mL
Cc1nnc(SSCC(C)C)s1 [Compound G-3] | 29 µg/mL
CCC(C)SSCc1ccc(OC)cc1 (stereo not drawn) [Compound F-21] | 60 µg/mL
CCCCSSCc1ccccc1 [Compound C-19] | >189 µg/mL

From patent US6552060B1, “Asymmetric disulfides and methods of using same” (Prolx Pharmaceuticals, Inc., priority 1997, dated 2003)
